Marks after values point to notes of the source that are not given here.
How the values were obtained:
Assay type in all cases: biochemical
[1] = target: T1, PA-mST6Gal II (mouse ST6Gal II) (Mus musculus, UniProt Q76K27, R48S); assay: Sialyltransferase activity of PA-mST6Gal II toward acceptor substrates; conditions: for Relative rate (%) Mouse ST6Gal II: PA-mST6Gal II, incorporation with Galβ1,4GlcNAc taken as 100, 0.5 mg/ml glycolipids, 1 mg/ml glycoproteins and oligosaccharides
T1 construct: amino acids 31-524 in the case of mouse ST6Gal II; signal peptide of mouse immunoglobulin IgM (N); made in house; host or cells: COS-7 cells, transient expression of pcDSA-mST6Gal II; protein recovered from medium on IgG-Sepharose
T1 sequence (Q76K27 31-524 R48S): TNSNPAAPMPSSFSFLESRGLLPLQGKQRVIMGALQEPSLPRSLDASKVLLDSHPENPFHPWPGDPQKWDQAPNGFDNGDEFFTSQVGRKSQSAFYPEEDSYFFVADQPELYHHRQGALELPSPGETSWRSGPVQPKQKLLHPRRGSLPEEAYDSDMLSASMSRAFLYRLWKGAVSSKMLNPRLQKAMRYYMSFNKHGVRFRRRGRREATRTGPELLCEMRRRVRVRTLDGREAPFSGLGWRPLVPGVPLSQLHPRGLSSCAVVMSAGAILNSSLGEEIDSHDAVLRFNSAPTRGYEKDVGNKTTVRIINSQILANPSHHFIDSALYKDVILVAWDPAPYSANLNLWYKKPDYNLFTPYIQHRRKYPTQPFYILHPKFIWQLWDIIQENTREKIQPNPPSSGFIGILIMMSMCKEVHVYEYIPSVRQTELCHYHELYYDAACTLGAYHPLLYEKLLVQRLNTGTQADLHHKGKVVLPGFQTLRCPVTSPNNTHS
Protocol: (§1) Using each expression vector and lipofectamine (Invitrogen), transient expression was carried out in COS-7 cells (Kojima, N. et al. (1995) FEBS Lett. 360, 1-4). The proteins of the present invention secreted from the cells into which each expression vector had been introduced were named as PA-hST6Gal II (human) and PA-mST6Gal II (mouse). PA-hST6Gal II and PA-mST6Gal II were adsorbed to IgG-Sepharose (Amersham Pharmacia Biotech), and were then recovered from medium. Sialyltransferase activity was measured as follows according to the method of Lee et al. (Lee, Y.-C. et al. (1999) J Biol. Chem. 274, 11958-11967). A reaction mixture (10 μl) containing 50 mM MES buffer (pH 6.0), 1 mM MgCl2, 1 mM CaCl2, 0.5% Triton CF-54, 100 μM CMP-[^14C]-NeuAc, a substrate sugar chain (which was added at 0.5 mg/ml in the case of glycolipids, and at 1 mg/ml in the case of glycoproteins or oligosaccharides), and a PA-hST6Gal II or PA-mST6Gal II suspension, was incubated at 37° C. for 3 to 20 hours. Thereafter, in the case of glycolipids, the reaction product was purified with a C-18 column (Sep-Pak Vac 100 mg; Waters) and the purified product was used as a sample. In the case of oligosaccharides or glycoproteins, the reaction product was directly used as a sample. Thus, the obtained sample was subjected to analysis. In the case of oligosaccharides or glycolipids, the sample was spotted on a silica gel 60 HPTLC plate (Merck), and it was then developed with a developing solvent consisting of 1-propanol:ammonia water:water=6:1:2.5 (for oligosaccharides), or a developing solvent consisting of chloroform:methanol: 0.02% CaCl2=55:45:10 (for glycolipids). In the case of glycoproteins, analysis was carried out by SDS-polyacrylamide gel electrophoresis. The obtained radioactivities were visualized with a BAS2000 radio image analyzer (Fuji Film) and then quantified.

human ST6Gal I = target: T2, human ST6Gal I (Homo sapiens, UniProt P15907); assay: Sialyltransferase activity of human ST6Gal I toward acceptor substrates (comparison); conditions: for Relative rate (%) Human ST6Gal I: incorporation with Galβ1,4GlcNAc taken as 100, 0.5 mg/ml glycolipids, 1 mg/ml glycoproteins and oligosaccharides
T2 sequence (P15907 1-406): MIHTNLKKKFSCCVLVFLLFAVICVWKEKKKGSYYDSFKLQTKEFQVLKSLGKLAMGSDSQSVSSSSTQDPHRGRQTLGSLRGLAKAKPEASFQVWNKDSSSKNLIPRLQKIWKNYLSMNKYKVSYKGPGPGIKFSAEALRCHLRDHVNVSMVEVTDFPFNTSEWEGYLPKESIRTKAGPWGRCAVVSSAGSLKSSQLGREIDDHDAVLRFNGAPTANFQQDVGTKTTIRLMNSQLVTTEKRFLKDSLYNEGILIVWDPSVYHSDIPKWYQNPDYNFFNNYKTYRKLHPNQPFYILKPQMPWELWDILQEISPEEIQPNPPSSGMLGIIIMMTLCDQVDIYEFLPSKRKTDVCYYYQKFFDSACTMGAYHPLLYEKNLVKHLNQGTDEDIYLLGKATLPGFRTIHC
Protocol: as §1
In contrast, there were no glycolipids, which could be substrates of both the enzymes, as far as the inventors have examined. The activity of human ST6Gal I on oligosaccharides was also examined for comparison. […] (FIG. 10).

[2] = target: T3, PA-hST6Gal II (human ST6Gal II) (Homo sapiens, UniProt Q96JF0); assay: Sialyltransferase activity of PA-hST6Gal II toward acceptor substrates; conditions: for Relative rate (%) Human ST6Gal II: PA-hST6Gal II, incorporation with Galβ1,4GlcNAc taken as 100, 0.5 mg/ml glycolipids, 1 mg/ml glycoproteins and oligosaccharides
T3 construct: amino acids 33-529 in the case of human ST6Gal II; signal peptide of mouse immunoglobulin IgM (N); made in house; host or cells: COS-7 cells, transient expression of pcDSA-hST6Gal II; protein recovered from medium on IgG-Sepharose
T3 sequence (Q96JF0 33-529): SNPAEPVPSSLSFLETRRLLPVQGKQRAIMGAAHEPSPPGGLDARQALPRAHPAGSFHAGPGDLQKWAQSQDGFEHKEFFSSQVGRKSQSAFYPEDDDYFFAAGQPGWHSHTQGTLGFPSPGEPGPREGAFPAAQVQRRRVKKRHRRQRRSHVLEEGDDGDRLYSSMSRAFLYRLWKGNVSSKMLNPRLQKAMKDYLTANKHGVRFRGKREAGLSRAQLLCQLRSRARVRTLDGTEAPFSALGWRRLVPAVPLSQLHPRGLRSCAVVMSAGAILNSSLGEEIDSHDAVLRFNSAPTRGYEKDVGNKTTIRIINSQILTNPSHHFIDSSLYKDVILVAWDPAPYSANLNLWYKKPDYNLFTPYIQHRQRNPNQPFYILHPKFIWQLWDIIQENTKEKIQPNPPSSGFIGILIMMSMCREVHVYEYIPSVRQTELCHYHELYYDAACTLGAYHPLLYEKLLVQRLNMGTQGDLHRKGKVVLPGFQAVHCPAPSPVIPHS
Protocol: as §1

Compound	Relative rate (%) Mouse ST6Gal II [1]	Relative rate (%) Human ST6Gal I (human ST6Gal I)	Relative rate (%) Human ST6Gal II [2]	activity of human ST6Gal I on the substrate (in words) (human ST6Gal I)	incorporation obtained with Galβ1,4GlcNAc ([1]; Mouse ST6Gal II, the value set as 100)	incorporation obtained with Galβ1,4GlcNAc (human ST6Gal I; Human ST6Gal I, the value set as 100)	incorporation obtained with Galβ1,4GlcNAc ([2]; Human ST6Gal II, the value set as 100)
CC(=O)N[C@H]1[C@H](O[C@H]2[C@@H](O)[C@@H](CO)O[C@@H](O[C@H]3[C@H](O)[C@@H](O)C(O)O[C@@H]3CO)[C@@H]2O)O[C@H](CO)[C@@H](O[C@@H]2O[C@H](CO)[C@H](O)[C@H](O)[C@H]2O)[C@@H]1O (stereo partly shown) [Lacto-N-neotetraose, Galβ1,4GlcNAcβ1,3Galβ1,4Glc]	128.8%	101.6%	86.2%				
OC[C@H]1O[C@@H](O[C@H]2[C@H](O)[C@@H](O)C(O)O[C@@H]2CO)[C@H](O)[C@@H](O)[C@H]1O (stereo partly shown) [Lactose, Galβ1,4Glc]	0%	8.7%	0%	showed activity			
CC(=O)N[C@H]1C(O)O[C@H](CO)[C@H](O)[C@@H]1O[C@@H]1O[C@H](CO)[C@H](O)[C@H](O)[C@H]1O (stereo partly shown) [Type III, Galβ1,3GalNAc]	0%	0%	0%				
Galβ1,3GalNAcβ1,4Galβ1,4Glcβ1-Cer [GA1]	0%	0%	0%				
Galβ1,3GlcNAc [Type I]	0%	4.2%	0%				
Galβ1,3GlcNAcβ1,3Galβ1,4Glc [Lacto-N-tetraose]	0%	31.1%	0%	showed activity			
Galβ1,4GlcNAc [Type II]	100* %	100*** %			*, 2.74 pmol/h/ml medium.	***, 8.14 pmol/h/ml medium.	**, 1.03 pmol/h/ml medium.
Galβ1,4GlcNAcβ1,3Galβ1,4Glcβ1-Cer [Paragloboside]	0%	0.3%	0%				

— US20060057696A1, “Sugar chain synthases” (priority 2002, published 2006)
